According to US20160200684A2, “Pharmaceutical Compositions for the Treatment of CFTR-Mediated Disorders” (Vertex Pharmaceuticals Incorporated, priority 2012, published 2016):
Read-outs that look alike come from different tables or passages of the source. Each block holds one compound with its values, some of them ahead of it.

Columns and labels:
Type in all cases: physicochemical
[1] = Stability of Compound 2 aqueous suspension in 0.5% methylcellulose/0.5% polysorbate 80; conditions: for conversion of salt form in suspension vehicle: at T(0), XRPD, 1H NMR
Protocol: Methylcellulose (0.5 g) was combined with 99.0 g of purified water in a beaker and stirred in a 60-70° C. water bath for 30′-1 hr. The solution was stirred in a 0° C. ice/water bath for another 30′ or until clear. Polysorbate 80 (0.5 g) was added and stirring at room temperature followed for 30′-1 hr or until a clear solution was obtained.
The appropriate amount of Compound 2 HCl salt based on free base was weighed and transferred to a scintillation vial. The desired amount of 0.5% methylcellulose and 0.5% polysorbate 80 stock solution for making a 6 mg/mL based on free base (6.48 mg/mL based on HCl salt) was transferred into the vial and sonicated for 20 minutes with alternate stirring for 1-2 minutes. The solution was homogenized for approximately 1-2 minutes.

[2] = Stability of Compound 2 aqueous suspension in 0.5% methylcellulose; conditions: room temperature; methylcellulose formulation
Protocol: A 100 mL stock solution of 0.5% by weight methylcellulose was prepared by stirring 0.5 g of methylcellulose with 99.5 g of purified water until completely dissolved (approximately 24 hours). The appropriate amount of Compound 2 HCl salt based on free base was weighed and transferred to a scintillation vial. The desired amount of 0.5% methylcellulose stock solution for making a 6 mg/mL based on free base (6.48 mg/mL based on HCl salt) was transferred into the vial and sonicated for 20 minutes and homogenized for approximately 5 minutes.

[3] = Solubility of Compound 3 in solvents
[4] = 0.5% methylcellulose/0.5% polysorbate 80

Compound: Cc1ccc(NC(=O)C2(c3ccc4c(c3)OC(F)(F)O4)CC2)nc1-c1cccc(C(=O)O)c1.Cl [Compound 2 HCl salt, 3-(6-(1-(2,2-Difluorobenzo [d][1,3]dioxol-5-yl)cyclopropanecarboxamido)-3-methylpyridin-2-yl)benzoic acid.HCl salt]
- physical stability of suspension [1, 4]: not physically stable
- conversion of salt form in suspension vehicle [1, 4]: quickly converted to Compound 2 Form I
- conversion of salt form in suspension vehicle ([1]; 0.5% methylcellulose/0.5% polysorbate 80, listed as HCl salt): quickly converted to Compound 2 Form I at T(0)

Compound: Cc1ccc(NC(=O)C2(c3ccc4c(c3)OC(F)(F)O4)CC2)nc1-c1cccc(C(=O)O)c1 [Compound 2 Form I, 3-(6-(1-(2,2-difluorobenzo[d][1,3]dioxol-5-yl)cyclopropanecarboxamido)-3-methylpyridin-2-yl)benzoic acid]
- chemically stable, no sign of chemical degradation ([1]; room temperature, 0.5% methylcellulose/0.5% polysorbate 80 formulation vehicle): at least 24 hrs
- physically and chemically stable, no sign of chemical degradation [2]: at least 24 hrs

- solubility ([3]; first solvent: ethyl acetate, ethanol, isopropyl alcohol, or acetone): greater than 20 mg/mL
- solubility ([3]; organic solvent or mixture, acetonitrile, methanol, ethanol, isopropyl alcohol, acetone, read-out: solubility): > 20 mg/mL
- solubility ([3]; second solvent: heptane or water, water, read-out: solubility (poor)): < 1 mg/mL
Compound: CC(C)(CO)c1cc2cc(NC(=O)C3(c4ccc5c(c4)OC(F)(F)O5)CC3)c(F)cc2n1C[C@H](O)CO [Compound 3, (S)-1-(2,2-difluorobenzo[d][1,3]dioxol-5-yl)-N-(1-(2,3-dihydroxypropyl)-6-fluoro-2-(1-hydroxy-2-methylpropan-2-yl)-1H-indol-5-yl)cyclopropanecarboxamide]
